Patent US9090600B2, “Fungicidal 4-substituted-3-{phenyl[(heterocyclylmethoxy)imino]methyl}-1,2,4-oxadizol-5(4H)-one derivatives” (BAYER INTELLECTUAL PROPERTY GMBH, priority 2011, dated 2015)
Read-outs that look alike come from different tables or passages of the source. Marks after values point to notes of the source that are not given here.

How the values were obtained:
[1] = tested on: Phytophthora infestans; type: in vivo; conditions: tomato, preventive spray, 100 ppm of active ingredient, evaluated 7 days after inoculation
[2] = tested on: Plasmopara viticola; assay: Plasmopara test (grapevines)/preventive; type: in vivo; conditions: preventive spray, 10 ppm of active ingredient, evaluated 6 days after inoculation
In short: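 Young grapevines sprayed preventively with compound formulated in acetone/dimethylacetamide with emulsifier, diluted in water, then inoculated with P. viticola spores after drying. Held 1 day at ~20 °C/100% RH, 4 days in greenhouse at ~21 °C/~90% RH, then misted for 1 day. Efficacy scored 6 days post-inoculation (0% = untreated control, 100% = no disease).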

[3] = tested on: Pythium aphanidermatum; assay: Pythium test (cucumber)/seed treatment; type: in vivo; conditions: 10 g/dt seed of active ingredient, emerged seedlings after 7 days
Method: (§1) The test is performed under greenhouse conditions.
Cucumber seeds, treated with the active compound or compound combinations, solved in N-methyl-2-pyrrolidon and diluted with water to the desired dosages, were sown in 6*6 cm pots containing 4 cm of a 1:1 mix of steamed field soil and sand.
Perlite was incubated with mycelium fragments of Pythium aphanidermatum. 5 ml of infected perlite was scattered between the treated […] seeds. Seeds were then covered by the 1:1 mix of steamed field soil and sand. Pots were incubated in the greenhouse 7 days at 24° C. and 80% relative humidity. Assessment consisted of counting of emerged seedlings. 0% means an efficacy which corresponds to that of the control, while an efficacy of 100% means that all seedlings have emerged.

[4] = tested on: Pythium ultimum; assay: Pythium test (cotton)/seed treatment; type: in vivo; conditions: 10 g/dt seed of active ingredient, emerged seedlings after 7 days
Method: as §1
Cotton seeds, treated with the active compound or compound combinations, solved in N-methyl-2-pyrrolidon and diluted with water to the desired dosages, were sown in 6*6 cm pots containing 4 cm of a 1:1 mix of steamed field soil and sand.
Perlite was incubated with mycelium fragments of Pythium ultimum. 1 ml of infected perlite was scattered between the treated cotton seeds. Seeds were then covered by light expanded clay aggregate. Pots were incubated in the greenhouse 7 days at 20° C. and 80% relative humidity.
(§2) Assessment consisted of counting of emerged seedlings. 0% means an efficacy which corresponds to that of the control, while an efficacy of 100% means that all seedlings have emerged.

[5] = tested on: Pythium irregulare; assay: Pythium test (corn)/seed treatment; type: in vivo; conditions: 10 g/dt seed of active ingredient, emerged seedlings after 7 days at 10° C. then 14 days at 20° C.
Method: as §1
Corn seeds, treated with the active compound or compound combinations, solved in N-methyl-2-pyrrolidon and diluted with water to the desired dosages, were sown in 6*6 cm pots containing 4 cm of a 1:1 mix of steamed field soil and sand.
Perlite was incubated with mycelium fragments of Pythium irregulare. 5 ml of infected perlite was scattered between the treated cotton seeds. Seeds were than covered by the 1:1 mix of steamed field soil and sand. Pots were incubated in the greenhouse 7 days at 10° C. and 80% relative humidity and then 14 days at 20° C. and 80% relative humidity.
as §2

[6] = pH 2.7
[7] = tested on: Phytophthora infestans; type: in vivo; conditions: tomato plants, spray, 500 ppm, grading 5 days after contamination
[8] = tested on: Alternaria brassicae; assay: In vivo test on Alternaria brassicae (leaf spot of crucifers); conditions: radish plants, spray, 500 ppm, grading 6 to 7 days after contamination
Method: (§3) The active ingredients tested are prepared by homogenization in a mixture of acetone/tween/DMSO, then diluted with water to obtain the desired active material.
Radish plants (Pernot variety), sown on a 50/50 peat soil-pozzolana substrate in starter cups and grown at 18-20° C., are treated at the cotyledon stage by spraying with the active ingredient prepared as described above.
Plants, used as controls, are treated with the mixture of acetone/tween/water not containing the active material.
After 24 hours, the plants are contaminated by spraying them with an aqueous suspension of Alternaria brassicae spores (40,000 spores per cm^3). The spores are collected from a 12 to 13 days-old culture.
The contaminated radish plants are incubated for 6-7 days at about 18° C., under a humid atmosphere.
Grading is carried out 6 to 7 days after the contamination, in comparison with the control plants.
Under these conditions, good protection (at least 70%) is observed at a dose of 500 ppm with the following compounds: […]

[9] = tested on: Uromyces appendiculatus; assay: In vivo test on Uromyces appendiculatus (brown rust of bean); conditions: Saxa variety plants, spray, 500 ppm, grading 10 days after contamination
Method: as §3
Wheat plants (Saxa variety) sown on 50/50 peat soil-pozzolana substrate in starter cups and grown at 24° C., are treated at the 2-leaf stage (9 cm tall) by spraying with the aqueous suspension described above.
Plants, used as controls, are treated with an aqueous solution not containing the active material.
After 24 hours, the plants are contaminated by spraying the leaves with an aqueous suspension of Uromyces appendiculatus spores (150.000 spores per ml). The spores are collected from a 10-day-old contaminated […] and are suspended in water containing 2.5 ml/l of tween 80 10%. The contaminated […] are incubated for 24 hours at 20° C. and at 100% relative humidity, and then for 10 days at 20° C. and at 70% relative humidity. Grading is carried out 10 days after the contamination, in comparison with the control plants.
(§4) Under these conditions, good (at least 70%) or total protection is observed at a dose of 500 ppm with the following compounds: […]

[10] = tested on: Puccinia recondita; assay: In vivo test on Puccinia recondita (brown rust); conditions: wheat plants, spray, 500 ppm, grading 10 days after contamination
In short: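 Wheat (Scipion) at the 1-leaf stage sprayed with compound suspension (acetone/tween/DMSO diluted in water), then inoculated 24 h later with Puccinia recondita spores at 100.000 spores per ml. Plants were held 24 h at 20 °C/100% RH, then 10 days at 20 °C/70% RH; protection graded 10 days post-inoculation versus untreated controls.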

[11] = tested on: Pyricularia grisea; type: in vivo; conditions: rice plants, spray, 500 ppm, grading 6 days after contamination
[12] = tested on: Mycosphaerella graminicola; assay: In vivo test on Mycosphaerella graminicola (wheat leaf spot); conditions: wheat plants, spray, 500 ppm, grading 21 to 28 days after contamination
In short: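 Scipion wheat at 1-leaf stage was sprayed with compound suspension (acetone/tween/DMSO diluted in water), then inoculated 24 h later with spores (500.000/ml). Plants were held 72 h at 18° C and 100% RH, then 21 to 28 days at 90% RH. Efficacy was graded as % versus untreated controls.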

[13] = tested on: Sphaerotheca fuliginea; assay: In vivo test on Sphaerotheca fuliginea (cucurbits powdery mildew); conditions: gherkin plants, spray, 500 ppm, grading 12 days after contamination
Method: as §3
Gherkin plants (Vert petit de Paris variety) in starter cups, sown on a 50/50 peat soil-pozzolana substrate and grown at 20° C./23° C., are treated at the cotyledon Z10 stage by spraying with the aqueous suspension described above. Plants, used as controls, are treated with an aqueous solution not containing the active material.
After 24 hours, the plants are contaminated by spraying them with an aqueous suspension of Sphaerotheca fuliginea spores (100.000 spores per ml). The spores are collected from a contaminated plants. The contaminated gherkin plants are incubated at about 20° C./25° C. and at 60/70% relative humidity.
Grading (% of efficacy) is carried out 12 days after the contamination, in comparison with the control plants.
as §4

Row | Structure (SMILES) | Eff. % [1] | Eff. % [2] | Eff. % [3] | Eff. % [4] | Eff. % [5] | LogP [6] | Eff. % [7] | Eff. % [8] | Eff. % [9] | Eff. % [10] | Eff. % [11] | Eff. % [12] | Eff. % [13]
1 | CCCCCOC(=O)Nc1cccc(CO/N=C(/c2ccccc2)c2noc(=O)n2C)n1 [Example 2] | 100% | 97% | 98% | 89% | 100% | 4.44 [a] | – | – | – | – | – | – | –
2 | C#CCCOC(=O)Nc1cccc(CO/N=C(/c2ccccc2)c2noc(=O)n2C)n1 [Example 3] | 98% | 100% | 95% | 93% | 100% | 3.27 [a] | – | – | – | – | – | – | –
3 | CCCCC(=O)Nc1cccc(CO/N=C(/c2ccccc2)c2noc(=O)n2C)n1 [Example 15] | 98% | 97% | 98% | 96% | 100% | 3.51 [a] | 99% | – | – | – | – | – | –
4 | Cn1c(/C(=N\OCc2cccc(NC(=O)CCCCl)n2)c2ccccc2)noc1=O [Example 34] | – | – | – | – | – | 3.27 [a] | 99% | 100% | – | – | – | – | –
5 | C#CCC(C)(C)OC(=O)Nc1cccc(CO/N=C(/c2ccccc2)c2noc(=O)n2C)n1 [Example 39] | – | 97% | – | – | – | 3.94 [a] | 100% | 83% | 81% | 98% | – | – | –
6 | Cn1c(/C(=N\OCc2cccc(NC(=O)c3cccc(F)c3)n2)c2cccc(F)c2)noc1=O [Example 42] | – | – | – | – | – | 3.79 [a] | 92% | – | – | – | 71% | – | –
7 | CC(C)CCCC(=O)Nc1cccc(CO/N=C(/c2ccccc2)c2noc(=O)n2C)n1 [Example 95] | – | 100% | – | – | – | 4.25 [a] | 100% | – | – | – | 70% | – | –
8 | C=CCOC(=O)Nc1cccc(CO/N=C(/c2ccccc2)c2noc(=O)n2C)n1 [Example 109] | – | – | – | – | – | 3.42 [a] | 93% | – | – | – | 70% | – | –
9 | CCCCCC(=O)Nc1cccc(CO/N=C(/c2ccccc2)c2noc(=O)n2C)n1 [Example 111] | 95% | 100% | – | – | – | 3.89 [a] | 100% | 70% | 72% | – | – | 100% | –
10 | CCC(CC)C(=O)Nc1cccc(CO/N=C(/c2ccccc2)c2noc(=O)n2C)n1 [Example 124] | – | – | – | – | – | 3.71 [a] | 99% | – | – | – | – | – | 80%
11 | C=CCCCCC(=O)Nc1cccc(CO/N=C(/c2ccccc2)c2noc(=O)n2C)n1 [Example 167] | – | 86% | – | – | – | 3.89 [a] | 98% | – | – | – | 96% | – | –
12 | Cn1c(/C(=N\OCc2cccc(NC(=O)OCc3ccccc3)n2)c2ccccc2)noc1=O [Example 168] | 92% | 100% | 92% | 70% | 100% | 3.99 [a] | 99% | – | – | – | – | – | –
13 | COc1ccccc1OCC(=O)Nc1nc(CO/N=C(/c2ccccc2)c2noc(=O)n2C)cs1 [Example 171] | – | – | – | – | – | 3.55 [a] | 100% | – | 82% | – | 80% | – | –
14 | CCOCC(C)OC(=O)Nc1cccc(CO/N=C(/c2ccccc2)c2noc(=O)n2C)n1 (centres unmarked) [Example 199] | 97% | 100% | 99% | 96% | 100% | 3.53 [a] | – | – | – | – | – | – | –
15 | C#CCC(C)OC(=O)Nc1cccc(CO/N=C(/c2ccccc2)c2noc(=O)n2C)n1 (centres unmarked) [Example 226] | 92% | 100% | 99% | 93% | 90% | 3.57 [a] | 100% | – | – | – | – | – | –
16 | Cn1c(/C(=N\OCc2cccc(NC(=O)C3OCCc4ccccc43)n2)c2ccccc2)noc1=O (centres unmarked) [Example 227] | – | – | – | – | – | 4.1 [a] | 100% | – | – | – | 96% | – | –
17 | Cn1c(C(=NOCc2csc(NC(=O)c3ccc(Cl)cc3Cl)n2)c2ccccc2)noc1=O [Example 262] | – | – | – | – | – | 3.94 [a] | 78% | 83% | – | – | – | – | –
18 | CCCOC(=O)Nc1nc(CON=C(c2ccccc2)c2noc(=O)n2C)cs1 [Example 265] | – | – | – | – | – | 3.35 [a] | 93% | – | – | – | 70% | – | –
19 | CCCC(C)OC(=O)Nc1cccc(CO/N=C(/c2ccccc2)c2noc(=O)n2C)n1 (centres unmarked) [Example 282] | 92% | 96% | 100% | – | 90% | 4.36 [a] | 98% | – | – | – | – | – | –
20 | Cn1c(/C(=N\OCc2cccc(NC(=O)OC(CCl)CCl)n2)c2ccccc2)noc1=O [Example 306] | – | – | – | – | – | 3.83 [a] | 100% | – | – | – | 90% | – | –
21 | Cc1ccc(/C(=N/OCc2csc(N)n2)c2noc(=O)[nH]2)cc1 [Example 308] | – | – | – | – | – | 1.84 [a] | 89% | 90% | – | 94% | – | 100% | –
22 | C#CCOC(=O)Nc1cccc(CO/N=C(/c2ccccc2)c2noc(=O)n2C)n1 [Example 342] | 92% | 100% | 100% | 100% | 100% | 3.13 [a] | 99% | – | – | – | – | – | –
23 | Cn1c(/C(=N\OCc2cccc(NC(=O)c3ccc(F)cc3)n2)c2ccccc2)noc1=O [Example 364] | – | 100% | – | – | – | 3.62 [a] | 98% | 92% | – | – | – | – | –
